Data set [1] in a line: Selectivity index, ratio of IC50 for inhibition of CDK1 (unknown origin) to IC50 for inhibition of CDK9 (unknown origin).
Data set [2] in a line: Selectivity index, ratio of IC50 for inhibition of CDK2 (unknown origin) to IC50 for inhibition of CDK9 (unknown origin).
Data set [3] deals with MV4-11. Briefly: Antiproliferative activity against human MV4-11 cells assessed as cell viability. The class given is functional, cell-based.
Data set [4] addresses Cyclin-dependent kinase 1 (Homo sapiens, UniProt P06493). In words: Inhibition of CDK1 (unknown origin).
Data set [5] has as its target Cyclin-dependent kinase 2 (Homo sapiens, UniProt P24941). Briefly: Inhibition of CDK2 (unknown origin).
A short description of data set [6]: Volume of distribution in CD-1 mouse at 2 mg/kg, iv. The class given is ADME, organism-based. The following applies: mouse, in vivo, iv, 2 mg/kg.
The nature of data set [7]: Half life in CD-1 mouse at 2 mg/kg, iv. The class given is ADME, organism-based. The following applies: mouse, in vivo, iv, 2 mg/kg.
Data set [8] can be described thus: AUC (0 to 24 hrs) in CD-1 mouse at 2 mg/kg, iv. The class given is ADME, organism-based. The following applies: mouse, in vivo, iv, 2 mg/kg.
The test system of data set [9] is MV4-11. Briefly: Antitumor activity against human MV4-11 cells xenografted in mouse assessed as tumor growth inhibition at 10 mg/kg, iv measured upto 28 days. The data set is classed as functional. The following applies: MV4-11, 672 h, time <= 28 day, read-out: TGI.
Data set [10] in a line: Toxicity in mouse assessed as change in body weight at 10 mg/kg, iv measured upto 28 days. The class given is organism-based. The conditions noted are these: in vivo, 672 h, time < 28 day.

Chain of Cyclin-dependent kinase 1 (P06493 whole entry): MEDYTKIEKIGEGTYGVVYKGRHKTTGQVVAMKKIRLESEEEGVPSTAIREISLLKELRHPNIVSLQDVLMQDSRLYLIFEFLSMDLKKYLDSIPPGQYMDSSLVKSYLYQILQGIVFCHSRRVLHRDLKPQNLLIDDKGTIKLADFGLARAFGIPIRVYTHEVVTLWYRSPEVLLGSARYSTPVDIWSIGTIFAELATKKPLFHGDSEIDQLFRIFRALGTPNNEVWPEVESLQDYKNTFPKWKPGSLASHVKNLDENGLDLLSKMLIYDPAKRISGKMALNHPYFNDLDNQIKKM

Regarding `Clc1cnc2[nH]c(C3CCNCC3)cc2c1-c1cnn(CC2CC2)c1`, the Ratio IC50 in data set [1] was found to be 11.5; in [2], 14.5. For the same molecule, the IC50 with MV4-11 [3] worked out at 14.7 nM.
Consider `COc1cc(F)ccc1-c1cc(Nc2cc(CS(C)(=N)=O)ccn2)ncc1F` (stereo not given) [ENITOCICLIB], for which the values for the IC50 (in data set [4]; in data set [5]; in the data set on MV4-11 [3]) were 250 nM, 231 nM and 92.4 nM, respectively. The molecule also gave a volume of distribution (Vd) in data set [6] of 1.27 L/kg. The molecule also had a t1/2 in data set [7] of 26.4 min. Besides, the AUC in data set [8] is 2.686 µM·h. In the data set with MV4-11 [9], the inhibition in vivo at 10 mg/kg turned out to be 65%. In addition, the Activity result in [10] is recorded as “Non-toxic”.
For the molecule `CC(C)N1CCC(c2cc3c(-c4cnn(CC5CC5)c4)c(Cl)cnc3[nH]2)CC1`, the Ratio IC50 stood at 73.3 in [1] and 32.4 in data set [2]. Moreover, the IC50 with MV4-11 [3] worked out at 94.8 nM.
For `c1cc(-c2cnn(CC3CC3)c2)c2cc(C3CCNCC3)[nH]c2n1`, in that order: 48.8, 51.8 and 252 nM.
For `CN1CCC(c2cc3c(-c4cnn(CC5CC5)c4)c(Cl)cnc3[nH]2)CC1`, in that order: 35.9, 11.2 and 35.7 nM.

(Values after ChEMBL document CHEMBL6092142, “Discovery and preclinical profile of YK-2168, a differentiated selective CDK9 inhibitor in clinical development” (Bioorg Med Chem Lett, 2024).)
